This note sets out measurements from PMC7699256, “In Silico Analysis and In Vitro Characterization of the Bioactive Profile of Three Novel Peptides Identified from 19 kDa α-Zein Sequences of Maize” (Molecules, 2020).

Like-named read-outs stand apart in the source and are kept apart here. No end group written: not given here.

This test addresses T1, angiotensin-converting enzyme (ACE) (Homo sapiens, UniProt P12821).
T1 construct: purchased Sigma-Aldrich CS0002
Briefly: ACE inhibition assay (ACE Activity Assay kit, fluorogenic substrate). It counts as biochemical. How it is done: ACE inhibitory activity was evaluated using the ACE Activity Assay test (Sigma-Aldrich CS0002, Saint Louis, MI, USA). This assay is based on the hydrolysis of angiotensin I by ACE to yield active angiotensin II. This test uses a synthetic fluorogenic peptide as the substrate, and the resulting fluorescence is proportional to ACE activity. Briefly, all reagents were diluted in the assay buffer, according to the manufacturer’s instructions. A total of 10 µL of peptide sample and positive control (captopril PHR1307, Sigma-Aldrich, Saint Louis, MI, USA), diluted in assay buffer at five different concentrations, and negative control (assay buffer) were pipetted into the wells of a 96-well black opaque plate. Then, 40 µL of ACE, provided in the kit, was added to sample and control wells. Sample blanks consisted of 50 µL of assay buffer. A standard curve was prepared in 100 µL assay buffer per well ranging from 0 to 8 nmol for calculating enzymatic activity. Subsequently, 50 µL of fluorogenic substrate warmed to 37 °C was added to experimental, control and blank sample wells. The reaction was carried out at 37 °C and fluorescence was read every minute for 5 min in a microplate reader (Biotek Synergy HTX, Winooski, VT, USA). The absorbance of excitation and emission were set at 320 nm and 405 nm, respectively. All determinations were done in duplicate. Linear regressions were determined to calculate the enzymatic activity for each sample dose.
One unit is defined as the amount of enzyme that releases one nmol of fluorescent substrate in 1 min at 37 °C. The results were expressed as milliunits of enzyme (mU). Finally, the IC50 of each peptide sample and captopril was determined using regression analysis of the corresponding dose–response curves. […] This value was expressed as µM.

[1] abbreviates: fluorogenic substrate, 37 °C, fluorescence (ex 320/em 405 nm) every minute for 5 min, five concentrations, value ± SD, n = 2, read-out: IC50 for ACE inhibition.
Where [2] appears, read: own IC50 values converted to mg/mL for comparison with the literature, read-out: IC50 for ACE inhibition expressed in mg/mL (converted).

T1 sequence (P12821 30-1306, species assumed): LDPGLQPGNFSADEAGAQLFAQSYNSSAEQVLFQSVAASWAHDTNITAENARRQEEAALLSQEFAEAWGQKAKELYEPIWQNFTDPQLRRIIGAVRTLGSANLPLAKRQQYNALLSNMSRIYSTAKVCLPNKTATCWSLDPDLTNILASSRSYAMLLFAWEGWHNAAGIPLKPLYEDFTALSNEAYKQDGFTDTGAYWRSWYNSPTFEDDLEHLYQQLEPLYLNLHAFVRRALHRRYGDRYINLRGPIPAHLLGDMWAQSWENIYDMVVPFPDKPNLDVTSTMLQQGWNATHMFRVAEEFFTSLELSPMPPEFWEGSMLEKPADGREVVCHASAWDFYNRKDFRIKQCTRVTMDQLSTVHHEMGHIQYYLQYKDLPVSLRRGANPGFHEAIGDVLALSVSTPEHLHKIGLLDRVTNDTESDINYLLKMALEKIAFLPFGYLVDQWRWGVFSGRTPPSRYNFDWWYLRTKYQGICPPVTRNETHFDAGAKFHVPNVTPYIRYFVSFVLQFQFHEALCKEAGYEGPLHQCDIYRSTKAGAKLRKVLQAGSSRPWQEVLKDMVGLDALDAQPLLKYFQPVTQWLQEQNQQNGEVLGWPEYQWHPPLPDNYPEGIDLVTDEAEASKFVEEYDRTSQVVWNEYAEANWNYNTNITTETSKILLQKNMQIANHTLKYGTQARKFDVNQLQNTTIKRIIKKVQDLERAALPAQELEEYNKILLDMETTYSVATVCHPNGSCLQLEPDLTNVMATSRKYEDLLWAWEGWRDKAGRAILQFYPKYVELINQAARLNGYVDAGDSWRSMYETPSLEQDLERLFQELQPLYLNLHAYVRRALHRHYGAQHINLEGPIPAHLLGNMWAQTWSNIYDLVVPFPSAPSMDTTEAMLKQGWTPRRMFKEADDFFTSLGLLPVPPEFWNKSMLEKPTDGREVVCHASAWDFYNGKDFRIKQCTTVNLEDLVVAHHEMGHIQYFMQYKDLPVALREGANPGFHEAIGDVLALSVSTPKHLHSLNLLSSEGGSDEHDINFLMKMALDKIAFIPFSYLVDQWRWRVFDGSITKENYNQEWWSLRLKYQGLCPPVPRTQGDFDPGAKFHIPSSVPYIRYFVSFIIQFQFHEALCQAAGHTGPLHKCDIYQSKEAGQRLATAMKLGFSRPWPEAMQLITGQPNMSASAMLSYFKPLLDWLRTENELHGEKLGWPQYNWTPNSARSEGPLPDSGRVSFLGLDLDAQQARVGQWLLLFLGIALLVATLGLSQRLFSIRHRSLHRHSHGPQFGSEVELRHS

In the case of QLADVSPAAFLTQQQLLPFYLHAM-NH2 [19ZP2], the IC50 is 174 ± 49.6 µM under setting [1] and 174 µM under setting [2].

As for FNQLAALNSAAYLQQQQLLPFSQLA-NH2 [19ZP1], the IC50 under setting [1] turned out to be 14.19 ± 0.12 µM and the IC50 under setting [2] is 14.4 µM.

For the substance AYLQAQQLLPFNQLVRSPAA-NH2 [19ZP3], the IC50 was 202 ± 0.63 µM under setting [1] and 202 µM under setting [2].
